Laboratory results from a melting point compilation (Tetko et al.; mined from patent text by program, amines drawn as free bases though some values may be those of a salt).

Structure (SMILES)	melting point [°C]
O=C1Nc2cccc(-c3cccs3)c2/C1=C/c1ccc[nH]1	213 to 214
CS(=O)(=O)c1ccc(-n2nc(C(=O)O)cc2-c2ccc(-c3ccco3)cc2)cc1	> 280
CCCCCCCCCCCCCCCCNc1ccc(C(=O)NS(=O)(=O)C(F)(F)F)cc1	172 to 174
Cc1[nH]c(=O)c(C(N)=O)cc1-c1ccc2nccn2c1	> 300
CCCCC#Cc1cc(C=CCC(=O)O)ccc1OC	102
N#CCN1C(=O)C2(COc3cc4c(cc32)OCCO4)c2ccccc21 (stereo unspecified)	161 to 162
O=[N+]([O-])c1ccc(N2C[C@H]3CN(Cc4ccccc4)C[C@H]3C2)cc1	121 to 123
COc1ccc2c(c1)C=C(C(=O)NCCCCN1CCN(c3ccccc3OC)CC1)CO2	165
OC(CNC(c1ccccc1)C(O)c1ccccc1)CNC(c1ccccc1)C(O)c1ccccc1 (stereo unspecified)	155 to 175
Cc1nc(NC(=O)NS(=O)(=O)c2ccccc2[N+](=O)[O-])nc2c1CCC2	202 to 205
CC(C)(C)OC(=O)NC1CCC2(CC1)CSC1=C(O2)c2ccccc2C(=O)C1=O (stereo unspecified)	224 to 225
CN1CCN(C(=O)C2CCC(Nc3ncc4ncnc(Nc5ccc(F)c(Cl)c5)c4n3)CC2)CC1 (stereo unspecified)	194 to 197
N=C(NO)c1ccc(-c2cccc(-c3cn4cc(C(=N)NO)ccc4n3)c2)cc1	252 to 254
CC(C)C[C@@H](CC(=O)O)NC(=O)[C@@H](CS)C(F)(F)F	155 to 156
Nc1ncc(Cl)c(CN2CCCC2)c1Cl	98 to 101
Cc1ccc(C(=O)Nc2ccc(N3CCN(C(=O)OC(C)(C)C)CC3)cc2)c(-c2ccc(C(C)C)cc2)c1	173 to 175
COCOCC1Oc2c(OC)cccc2C1=O (stereo unspecified)	71 to 72
CCOC(=O)c1c(S(=O)(=O)Cl)nn2c(C)cc(C)nc12	128 to 130
Cn1cc(C(=O)c2ccc(Cl)cc2)cc1C(=O)CCl	130 to 132
Cc1ccc(C)c(C2=C(O)C(CC3CCS(=O)(=O)CC3)NC2=O)c1 (stereo unspecified)	244 to 246
COc1cc2c(cc1Cl)C(c1ccccc1Cl)C(=O)N2 (stereo unspecified)	243 to 247
COc1ccc(OC)c(OCCO)c1	50 to 52
N#CCCc1ccc(OCC2(O)CN3CCC2CC3)cc1 (stereo unspecified)	92 to 94

Structure (SMILES)	melting point [°C]
CCCc1nc(C(OCC)OCC)cc(NC(c2ccccc2)(c2ccccc2)c2ccccc2)c1F	111 to 112
O=[N+]([O-])C(CSc1cccc(Cl)c1)=C1NCCN1Cc1ccc(Cl)nc1	143
COc1cc(C)nc(N(C)C(=O)NS(=O)(=O)c2cc(Cl)ccc2Cl)n1	182 to 185
CC(Cl)(Cl)C(NC(=O)c1cc(F)cc(F)c1)Nc1c(Nc2cccnc2)c(=O)c1=O (stereo unspecified)	231 to 232
CC(C(=O)c1ccc(F)cc1F)c1ncccn1 (stereo unspecified)	118 to 119
CC(C)(O)C(=O)c1ccc(OCC(N)=O)cc1	139
C=CCc1c(O)c(=O)[nH]c2cc(Cl)ccc2c1=O	172 to 174
COc1ccc2c(c1OC)CCCC2=O	103 to 104
CCCCCCCCCCCCCCCCCCOc1cc(N)cc(OCc2ccccc2)c1	57 to 59
CCCn1cc(C(N)=O)c(N)n1	160 to 163
Nc1nc(=O)n(C2CC(O)C(CNC(=O)Cc3ccccc3Br)O2)cc1Br (stereo unspecified)	164 to 167
CCOC(=O)c1cn(CCO)c2nc(N3CCN(C)CC3)ncc2c1=O	197 to 199
O=C(Nc1cc(C(F)(F)F)ccc1N1CCOCC1)c1ccncc1	172 to 173
COC(=O)Nc1ccc(CN2CCC(C(O)(c3ccc(OC(F)(F)F)cc3)c3ccc(OC(F)(F)F)cc3)CC2)cc1	178 to 182
CC1(C)CC(=O)CC(C)(C)c2cc(Br)ccc21	104 to 105
C#CCCCOc1c(C)cc(C(N)=O)cc1C	81 to 84
CCC1CCC2(C)C(=CCC3C4CCC(=O)C4(C)CCC32)C1 (stereo unspecified)	73 to 75
Cn1ccnc1COc1nn2c(-c3ccccc3F)nnc2cc1C1CCC1	173
CCCCn1cc(C(=O)C(=O)O)c2cc(-c3ccc(Cl)cc3)ccc21	136 to 137
CCC1(C)CC(O)CC(C)(C)N1OC(C)(C)C#N (stereo unspecified)	48 to 60
CC(=O)c1ccc(CCNS(C)(=O)=O)cc1	80 to 81
COc1ccc(-c2cncc(OC3SCC(O)C(O)C3O)c2)cc1 (stereo unspecified)	216
CCC(=NOCC=Cc1ccc(Br)cc1)C1=C(O)CC(C2CCCSC2)CC1=O (stereo unspecified)	97 to 99

Structure (SMILES)	melting point [°C]
COS(=O)(=O)c1cc(C(C)(C)C)c(O)c(C(C)(C)C)c1	116 to 118
N#Cc1c(OC(F)(F)Br)ncnc1N1CCc2ccccc2CC1	95 to 100
COc1ccc2[nH]c(C(C)C)c(/C=C/C(=O)c3ccncc3)c2c1	252 to 253
CC(Oc1ncn(-c2ccccc2Cl)n1)C(=O)O (stereo unspecified)	104 to 106
CCCN(CCCNc1ncc(Cc2ccc3c(c2)OCO3)c(=O)[nH]1)c1ccccn1	86 to 92
Nc1nc(-c2ccc(CCCCN3CCN(c4cccc5ccccc45)CC3)cc2)cs1	242 to 245
O=C(c1c2n(c3ccccc13)CCNCC2)C(F)(F)F	131 to 133
Clc1ccc([C@H]2Cc3cnc(Nc4ccccc4)nc3-c3ccccc32)cc1Cl	156 to 157
O=[N+]([O-])c1c(-c2ccc(Cl)cc2)[nH]c(C(F)(F)F)c1-c1csc(Br)c1Br	241 to 242
O=[N+]([O-])c1ccc(S(=O)(=O)N2CC3CN(Cc4ccccc4)CC(C2)O3)cc1	98.4 to 101
CC(C)(C)OC(=O)Cc1n[nH]c2c(=O)[nH]c3cc(Cl)ccc3c(=O)c12	226 to 229
CSc1c(C#N)c(=O)n2ccccc2c1C(C)=O	178
O=C(NO)c1ccc(CNC(=O)c2[nH]c(-c3cccs3)cc2-c2ccc(F)cc2)nc1	151 to 152
O=[N+]([O-])c1ccc2oc(-c3sccc3CBr)nc2c1	146 to 148
CC(Oc1ncn(-c2cccc(Cl)c2)n1)C(=O)N(C)C (stereo unspecified)	136 to 139
Cc1cc2c(-c3cccc(Cl)c3)nc(Cl)nc2s1	118 to 120
COc1ccc(Nc2ccc(Nc3ncnc4cc(-c5ccc(OC)cc5)sc34)cc2)cc1	159 to 169
CCOC(=O)c1c(Cl)nc2cc(Cl)c(F)cc2c1CCl	> 250
CC12CCC3C(CC4OC45CC(O)CCC35C)C1CCC2=O (stereo unspecified)	197 to 200
CC1(C)CCC(C)(C)c2cc(-c3cc4ccc(C(=O)O)cc4s3)c(Br)cc21	272 to 275
O=C(CNC1CCCCC1)Nc1ccc([N+](=O)[O-])cc1	123 to 125
CC(C)(C)c1cc(-c2nn(CC(N)=O)c3ncccc23)cc(C(C)(C)C)c1O	162 to 164
CC(=O)NCCn1nnnc1S	138 to 140

Further lines, results first:

melting point [°C]	Structure (SMILES)
84	CCN(CC)C(=O)n1cc(C(=O)C2CSC(c3cccnc3)N2)c2ccccc21 (stereo unspecified)
208 to 210	COCCn1nc(-c2sc(N)nc2-c2ccccc2)ccc1=O
202 to 203	O=C(NCCO)c1cccc(-c2cccc3nn(Cc4cccc(Cl)c4)cc23)c1
147 to 150	O=C(O)[C@H](Cc1ccccc1)N[C@@H](Cc1c[nH]c2ccccc12)C(=O)OCc1ccccc1
208 to 210	Cc1ccccc1C(=O)Nc1ccc(C(=O)N2CCCC(n3cccc3)c3ccccc32)cc1 (stereo unspecified)
252 to 254	Cc1ccc(C(=O)O)c(Nc2ccc3[nH]ncc3c2)n1
132 to 135	OCCCCOc1ccc2cc(Nc3ccc(O)cc3)ccc2c1
173	COC(=O)c1cc(NC(=O)OC(C)(C)C)c([N+](=O)[O-])cc1C#Cc1ccccc1
189 to 192	O=c1nc(NCCCOc2cc(CN3CCCCC3)ccn2)c2ccccc2[nH]1
160 to 162	O=C(c1ccccc1)c1cc(O)ccc1O
178	COc1ccc(CCN2CCC(NC(=O)c3ccccc3)CC2)cc1
110 to 111	CC(C)(C)CC(C)(C)NC(=O)C1=C(c2ccccc2)C(c2ccccc2)OC1=O (stereo unspecified)
141 to 143	Nc1ccc(NC(=O)C(=O)N2CCC(Cc3ccc(F)cc3)CC2)cc1
244	O=C1NC(=NCc2ccccc2)C(c2ccc(Br)cc2)N1c1ccc2[nH]cnc2c1 (stereo unspecified)
91 to 92	COC(=O)c1ccccc1SC1=C(O)CC(CCc2ccccc2)(c2ccccc2)OC1=O (stereo unspecified)
210 to 211	Oc1cccc(/C=C/c2nc3ccccc3s2)c1

melting point [°C]	Structure (SMILES)
70 to 72	CCCCCCOc1ccc(NC(=O)CC(=O)C(C)(C)C)cc1
172 to 175	CC(C)(C#N)OC(=O)Nc1ccc(-c2ncn(-c3ccc(OC(F)(F)F)cc3)n2)cc1
86 to 89	Cc1ccc(/C=C(/C(=O)OC(C)(C)C)C(=O)c2ccccc2O)cc1
202 to 204	COCc1nc2c(N)nc3ccccc3c2n1Cc1ccccc1
250 to 252	CCOC(=O)c1nnc2ccc(NC(=O)OCc3ccccc3)cc2c1O
189 to 191	CCCCSc1ccc(-c2cc3ccccc3[nH]2)cc1
140 to 142	COCOc1cc(F)ccc1-c1cc(-c2cccc(NC(=O)CN3CCCCC3)c2)c(C#N)c(NC(=O)c2ccco2)n1
188 to 190	COC(=O)c1cc2nnn(-c3ccccc3)c2nc1OCc1ncnn1C
162 to 165	CC1(C)CC(NS(C)(=O)=O)c2cc(OCc3ccccc3)ccc2O1 (stereo unspecified)
170 to 171	CC1(C)N=C(N)N=C(N)N1OCc1cccc2ccccc12
145 to 146	CN(C)c1ncc(C(=O)CNCC(O)c2cccc(OC(=O)C(C)(C)C)c2)c(-c2ccccc2)n1 (stereo unspecified)
248 to 249	CNC(=O)c1n[nH]cc1NC(=O)c1ccccn1
70 to 71.5	CC1C(=O)Oc2c(Oc3ccccc3F)cccc21 (stereo unspecified)
71	Cc1ccc2c(c1)c(C)c(C(=O)OCc1ccccc1)n2CCC#N
105 to 106	CCc1nc2ccccc2c2ccc(F)cc12
170	CCCCc1nc2ncccc2n1Cc1ccc(-c2ccccc2C(=O)O)cc1
